Key:
[1] = DRUGMATRIX: Phorbol Ester radioligand binding (ligand: [3H] PDBu); type: cell membranes, Mus musculus, ICR, Brain, Membrane; conditions: Not Active = under 50% inhibition at 10 µM
[2] = DRUGMATRIX: Sigma2 radioligand binding (ligand: [3H] Ifenprodil); type: cell membranes, Rattus norvegicus, Wistar, Brain, Membrane; conditions: Not Active = under 50% inhibition at 10 µM
[3] = DRUGMATRIX: Leukotriene, BLT (LTB4) radioligand binding (ligand: [3H]LTB4); type: cell membranes, Membrane; conditions: u-937, Not Active = under 50% inhibition at 10 µM
[4] = DRUGMATRIX: Purinergic P2X radioligand binding (ligand: [3H] alpha, beta-Methylene-ATP); type: cell membranes, Oryctolagus cuniculus, New Zealand albino, Urinary bladder, Membrane; conditions: Not Active = under 50% inhibition at 10 µM
[5] = molecular target: Cytochrome P450 2D6 (Homo sapiens, UniProt P10635); conditions: bti-tn-5b1-4; note: in other assays of this panel Not Active means under 50% inhibition at 10 µM
Cytochrome P450 2D6, sequence (P10635 whole entry): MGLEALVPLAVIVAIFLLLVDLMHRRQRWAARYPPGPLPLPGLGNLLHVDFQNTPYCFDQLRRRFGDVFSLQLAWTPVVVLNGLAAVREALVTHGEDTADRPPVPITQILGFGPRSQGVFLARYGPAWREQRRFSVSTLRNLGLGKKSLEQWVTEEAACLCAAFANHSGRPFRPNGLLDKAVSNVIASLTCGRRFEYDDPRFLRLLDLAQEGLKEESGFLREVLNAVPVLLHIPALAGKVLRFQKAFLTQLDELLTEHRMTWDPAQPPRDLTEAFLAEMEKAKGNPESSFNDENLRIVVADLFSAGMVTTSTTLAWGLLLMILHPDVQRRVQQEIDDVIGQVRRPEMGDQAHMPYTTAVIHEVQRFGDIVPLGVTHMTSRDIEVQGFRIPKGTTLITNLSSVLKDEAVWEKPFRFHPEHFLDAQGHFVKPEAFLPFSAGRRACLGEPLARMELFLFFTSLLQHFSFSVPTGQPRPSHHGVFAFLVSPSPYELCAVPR

[6] = DRUGMATRIX: Calcium Channel Type L, Benzothiazepine radioligand binding (ligand: [3H] Diltiazem); type: cell membranes, Rattus norvegicus, Wistar, Brain, Membrane; conditions: Not Active = under 50% inhibition at 10 µM
[7] = DRUGMATRIX: GABAA, Chloride Channel, TBOB radioligand binding (ligand: [3H] TBOB); type: cell membranes, Rattus norvegicus, Wistar, Cerebral cortex, Membrane; conditions: Not Active = under 50% inhibition at 10 µM

| Compound | IC50 [1] | Ki [1] | IC50 [2] | Ki [2] | IC50 [3] | Ki [3] | IC50 [4] | Ki [4] | IC50 [5] | Ki [5] | IC50 [6] | Ki [6] | IC50 [7] | Ki [7] | IC50 ([2]; read-out: IC50) | Ki ([2]; read-out: Ki) | IC50 ([3]; read-out: IC50) | Ki ([3]; read-out: Ki) | IC50 ([6]; read-out: IC50) | Ki ([6]; read-out: Ki) |
| --- | --- | --- | --- | --- | --- | --- | --- | --- | --- | --- | --- | --- | --- | --- | --- | --- | --- | --- | --- | --- |
| CC(=N)S [THIOACETAMIDE] | Not Active | Not Active | Not Active | Not Active | Not Active | Not Active | Not Active | Not Active | Not Active | Not Active | Not Active | Not Active | Not Active | Not Active |  |  |  |  |  |  |
| O=C1C[C@@H]2OCC=C3CN4CC[C@]56c7ccccc7N1[C@H]5[C@H]2[C@H]3C[C@H]46 [STRYCHNINE] | Not Active | Not Active | Not Active | Not Active | Not Active | Not Active | Not Active | Not Active | Not Active | Not Active | Not Active | Not Active | Not Active | Not Active |  |  |  |  |  |  |
| Nc1ccc(S(=O)(=O)NC(=O)c2ccccc2)cc1 [SULFABENZAMIDE] | Not Active | Not Active | Not Active | Not Active | Not Active | Not Active | Not Active | Not Active | Not Active | Not Active | Not Active | Not Active | Not Active | Not Active |  |  |  |  |  |  |
| CC(=O)OCC(COC(C)=O)OC(C)=O [TRIACETIN] | Not Active | Not Active | Not Active | Not Active | Not Active | Not Active | Not Active | Not Active | Not Active | Not Active | Not Active | Not Active | Not Active | Not Active |  |  |  |  |  |  |
| CCCCC(=O)N(Cc1ccc(-c2ccccc2-c2nnn[nH]2)cc1)[C@H](C(=O)O)C(C)C | Not Active | Not Active | Not Active | Not Active | Not Active | Not Active | Not Active | Not Active | Not Active | Not Active | Not Active | Not Active | Not Active | Not Active |  |  |  |  |  |  |
| OCCOCCN1CCN(C2=Nc3ccccc3Sc3ccccc32)CC1 [QUETIAPINE] |  |  |  |  |  |  |  |  | Not Active | Not Active |  |  |  |  |  |  |  |  |  |  |
| CC1CCC(NC(=O)N(CCCl)N=O)CC1 (centres undefined) [SEMUSTINE] | Not Active | Not Active | Not Active | Not Active | Not Active | Not Active | Not Active | Not Active | Not Active | Not Active | Not Active | Not Active | Not Active | Not Active |  |  |  |  |  |  |
| O=C(O)CCCCC1CCSS1 (stereo not drawn) [LIPOIC ACID, ALPHA] | Not Active | Not Active | Not Active | Not Active | Not Active | Not Active | Not Active | Not Active | Not Active | Not Active | Not Active | Not Active | Not Active | Not Active |  |  |  |  |  |  |
| CCCCCCCCNC(C)C(O)c1ccc(SC(C)C)cc1 (centres undefined) [SULOCTIDIL] | Not Active | Not Active |  |  |  |  | Not Active | Not Active | Not Active | Not Active |  |  | Not Active | Not Active | 21.4 nM | 13.2 nM | 1440 nM | 366 nM | 171 nM | 152 nM |
| COC(=O)[C@H]1[C@H]2C[C@@H]3c4[nH]c5cc(OC)ccc5c4CCN3C[C@H]2C[C@@H](OC(=O)c2cc(OC)c(OC)c(OC)c2)[C@@H]1OC [RESERPINE] | Not Active | Not Active | Not Active | Not Active | Not Active | Not Active | Not Active | Not Active | Not Active | Not Active |  |  | Not Active | Not Active |  |  |  |  | 3710 nM | 3300 nM |
| O=c1[nH]c(=O)n(C2CCCO2)cc1F (centres undefined) [TEGAFUR] | Not Active | Not Active | Not Active | Not Active | Not Active | Not Active | Not Active | Not Active | Not Active | Not Active | Not Active | Not Active | Not Active | Not Active |  |  |  |  |  |  |
| CC(C)NC[C@H](O)COc1cccc2ccccc12 [LEVOPROPRANOLOL] |  |  |  |  |  |  |  |  | Not Active | Not Active |  |  |  |  |  |  |  |  |  |  |
